The source of these data is patent publication US20150072968A1, “Treating Infections with Ceftolozane/Tazobactam in Subjects Having Impaired Renal Function” (Calixa Therapeutics, Inc., priority 2013, published 2015).

A short description of series [1]: Phase 1 single dose PK of 750 mg ceftolozane/tazobactam in severe renal impairment and ESRD on hemodialysis (Example 8). The format is in vivo, human. On the procedure: This was a Phase 1, multicenter, prospective, open-label study of 750 mg ceftolozane/tazobactam (as CXA-201) administered IV in male and female adult subjects with severe renal impairment (estimated CLCR<30 mL/min) and subjects with end-stage renal disease (ESRD) on hemodialysis (HD). The primary objective of the study was to determine the PK profile of ceftolozane/tazobactam in subjects with severe renal impairment and subjects with ESRD on HD and to determine the effect of HD on the clearance of ceftolozane/tazobactam.
Subjects with severe renal impairment received a single IV 1-hour infusion of 750 mg ceftolozane/tazobactam on Day 1. […] Subjects in this cohort received an IV dose of 750 mg ceftolozane/tazobactam as a 1 hour infusion immediately after their first HD session on Day 1 (postdialysis, approximately 72 hours prior to the next HD session) and a second dose of ceftolozane/tazobactam approximately 2 hours before their second HD session on Day 4 of the study. Infusion of ceftolozane/tazobactam was completed approximately 1 hour before the start of HD.
Subjects in both cohorts had urine (if not anuric) and plasma samples collected for determination of levels of ceftolozane, tazobactam and the M1 metabolite of tazobactam; subjects in the ESRD on HD cohort also had dialysate fluid samples collected for PK assessment. Plasma, urine, and dialysate levels of ceftolozane, tazobactam, and its metabolite M1 collected over a prespecified interval were determined by LC/MS/MS assay.
All subjects underwent hemodialysis for 3 to 4 hours using a high-flux membrane (either 1.4, 1.8, or 1.9 m^2) on Days 1, 4, and 6 as scheduled. Average blood flow rate was 264 to 600 mL/min and average dialysis flow rate was either 600 or 800 mL/min for all subjects with ESRD.

Series [2] concerns Pseudomonas aeruginosa. Nature of the series: Phase 3 cIAI study, per pathogen clinical cure. It counts as in vivo. The following applies: ME population. The method, then: (§1) A total of 979 adults hospitalized with complicated intra-abdominal infections were randomized and received study medications in a multinational, double-blind study comparing CXA-201 (1.5 g IV every 8 hours) plus metronidazole (500 mg IV every 8 hours) to meropenem (1 g IV every 8 hours) for 4 to 14 days of therapy. Complicated intra-abdominal infections included appendicitis, cholecystitis, diverticulitis, gastric/duodenal perforation, perforation of the intestine, and other causes of intra-abdominal abscesses and peritonitis. The primary efficacy endpoint was clinical response at the test-of-cure (TOC) visit in the microbiological intent-to-treat (MITT) population, which included all patients who had at least 1 baseline intra-abdominal pathogen. The key secondary efficacy endpoint was clinical response at the TOC visit in the microbiologically evaluable (ME) population, which included all protocol-adherent MITT patients.

The test system of series [3] is Anaerobic Gram-negative. Nature of the series: Phase 3 cIAI study, per pathogen clinical cure. The following applies: ME population. It counts as in vivo. On the procedure:
as §1

The test system of series [4] is Escherichia coli. Nature of the series: Phase 3 cIAI study, per pathogen clinical cure. It counts as in vivo. To be noted: ME population. The method, then:
as §1

For series [5], the system named is Streptococcus anginosus. Nature of the series: Phase 3 cIAI study, per pathogen clinical cure. The format is in vivo. To be noted: ME population. On the procedure:
as §1

The subject of series [6] is Proteus mirabilis. Nature of the series: Phase 3 cIAI study, per pathogen clinical cure. The format is in vivo. To be noted: ME population. The method, then:
as §1

In series [7] the test system is Enterobacter cloacae. Nature of the series: Phase 3 cIAI study, per pathogen clinical cure. The format is in vivo. To be noted: ME population. The method, then: as §1
In series [8] the test system is Streptococcus salivarius. As to the kind of experiment: Phase 3 cIAI study, per pathogen clinical cure. It counts as in vivo. The following applies: ME population. On the procedure: as §1
Series [9] deals with Streptococcus constellatus. As to the kind of experiment: Phase 3 cIAI study, per pathogen clinical cure. It counts as in vivo. To be noted: ME population. On the procedure:
as §1

Series [10] deals with Bacteroides vulgatus. Nature of the series: Phase 3 cIAI study, per pathogen clinical cure. The format is in vivo. To be noted: ME population. On the procedure: as §1
Series [11] has as its system Klebsiella pneumoniae. Nature of the series: Phase 3 cIAI study, per pathogen clinical cure. It counts as in vivo. To be noted: ME population. The method, then: as §1
Series [12] concerns Bacteroides fragilis. Nature of the series: Phase 3 cIAI study, per pathogen clinical cure. It counts as in vivo. To be noted: ME population. The method, then:
as §1

Series [13] has as its system Aerobic Gram-negative. Nature of the series: Phase 3 cIAI study, per pathogen clinical cure. The format is in vivo. The following applies: ME population. The method, then: as §1
Series [14] concerns Aerobic Gram-positive. As to the kind of experiment: Phase 3 cIAI study, per pathogen clinical cure. The format is in vivo. To be noted: ME population. On the procedure:
as §1

For series [15], the system named is Klebsiella oxytoca. As to the kind of experiment: Phase 3 cIAI study, per pathogen clinical cure. It counts as in vivo. The following applies: ME population. The method, then: as §1
Series [16] has as its system Bacteroides thetaiotaomicron. As to the kind of experiment: Phase 3 cIAI study, per pathogen clinical cure. The format is in vivo. The following applies: ME population. On the procedure:
as §1

Series [17] relates to Bacteroides ovatus. As to the kind of experiment: Phase 3 cIAI study, per pathogen clinical cure. The format is in vivo. To be noted: ME population. On the procedure:
as §1

For series [18], the system named is complicated intra-abdominal infections. As to the kind of experiment: Phase 3 study of complicated intra-abdominal infections, clinical response at TOC visit. It counts as in vivo, human. The method, then:
as §1

Series [19] deals with P. aeruginosa. Nature of the series: Baseline susceptibility testing of cUTI isolates, CLSI broth microdilution. It counts as cell-based, Pseudomonas aeruginosa. To be noted: comparators. The method, then:
764 isolates of Gram-negative aerobic organisms were isolated from 800 patients in the microbiological modified intent-to-treat population (enrolled in 20 countries in Eastern Europe, North America, South America and 5 countries outside of these regions). Susceptibility (S) testing was performed with ceftolozane/tazobactam at a fixed 4 μg/mL of tazobactam and 10 antibiotic comparators using CLSI broth microdilution methods. ESBL enzymes were identified by PCR.
(Dilution methods test growth across graded concentrations, often in twofold steps.)

Where [20] appears, read: ESRD on HD, second IV infusion of 750 mg on Day 4 (during HD).
Setting [21] is: ESRD on HD, second infusion Day 4, start of infusion to end of dialysis.
[22] abbreviates: severe renal impairment, single IV 1-hour infusion of 750 mg ceftolozane/tazobactam.

With `C[C@](Cn1ccnn1)([C@@H](N)C(=O)O)S(=O)O` [M1 Metabolite], the “Cmax, Mean (CV %)” value in [1] (ESRD on HD, Day 1 IV infusion of 750 mg (non-hemodialysis phase)) was 10.0 (40) μg/mL; in [1] (setting [20]) it was 10.8 (46) μg/mL; in [1] (setting [21]), 10.6 (49) μg/mL; in series [1] (severe renal impairment, single IV 1-hour infusion of 750 mg ceftolozane/tazobactam, plasma) it was 2.2 (20) μg/mL. Moreover, the “AUClast, Mean (CV %)” value in series [1] (ESRD on HD, Day 1 IV infusion of 750 mg (non-hemodialysis phase), through 48 hours) is listed as 367 (42) μg·h/mL; in series [1] (ESRD on HD, second IV infusion of 750 mg on Day 4 (during HD), through 44 hours), 176 (40) μg·h/mL; in series [1] (ESRD on HD, second infusion Day 4, approximately 6 hours from start of infusion to end of dialysis), 23.8 (44) μg·h/mL; in series [1] (severe renal impairment, single IV 1-hour infusion of 750 mg ceftolozane/tazobactam, plasma, through 48 hours), 53.7 (25) μg·h/mL. Moreover, the “tmax, Median (minimum, maximum)” value in series [1] (setting [20]) is listed as 1.5 (0.5, 24.0) h; in series [1] (setting [21]), 1.5 (0.5, 1.5) h. Moreover, the “t1/2, Mean (CV %)” value in [1] (setting [21]) is listed as 1.54 (48) h; in [1] (setting [22]), 12.0 (29) h. Moreover, in [1] (setting [22]), the “AUC∞, Mean (CV %)” value is recorded as 60.3 (30) μg·h/mL. Moreover, the “Exposure (AUC48h) After HD (Day 1), Median (Range)” value in series [1] (subjects with ESRD) was 389 (99.8 − 538) μg·h/mL. Also, the “Exposure (AUC48h) During HD (Day 3), Median (Range)” value in series [1] (subjects with ESRD) was 182 (78 − 255) μg·h/mL. In addition, the removed by dialysis in [1] (subjects with ESRD on HD) was about 51%. For the same compound, the “AUC48h Ratio (Day 3:1), Median (Range)” value in series [1] (subjects with ESRD, during HD vs after HD) is listed as 0.49 (0.38 − 0.78). Also, in series [1] (subjects with ESRD, hemodialysis), the “Percent Removed, Median (Range)” value is listed as 51 (22 − 63) Percent.
As to `C[C@@H](O)[C@H]1C(=O)N2C(C(=O)O)=C(S[C@@H]3CN[C@H](C(=O)N(C)C)C3)[C@H](C)[C@H]12` [Meropenem], the “Per pathogen clinical cure rate” value is reported as 27/29 (93.1) % in series [2]; 132/137 (96.4) % in series [3]; 216/231 (93.5) % in series [4] (Escherichia coli); 7/9 (77.8) % in series [4] (Escherichia coli (CTX-M-14/15 ESBL-producing)); 18/20 (90.0) % in series [4] (Escherichia coli (EBSL-producing)); 23/23 (100) % in [5]. The “Per pathogen clinical cure rate” value in [6] is 9/10 (90.0) %; in series [7] it was 22/22 (100) %; in series [8] it was 8/8 (100) %; in series [9], 20/23 (87.0) %; in series [10] it was 21/22 (95.5) %; in series [11] (Klebsiella pneumonia), 22/25 (88.0) %. Further, the “Per pathogen clinical cure rate” value in series [11] (Klebsiella pneumoniae (CTX-M-15 ESBL-producing)) is 7/9 (77.8) %; in [11] (Klebsiella pneumoniae (ESBL-producing)), 3/4 (75.0) %; in series [12], 56/57 (98.2) %; in [13], 273/291 (93.8) %; in [14], 170/185 (91.9) %; in series [15], 21/22 (95.5) %. Also, the “Per pathogen clinical cure rate” value in series [16] is reported as 40/43 (93.0) %; in series [17] it was 42/42 (100) %. In addition, the figures for the “Clinical cure rate at TOC visit” value in series [18] (ME population) and in series [18] (MITT population) were 304/321 (94.7) % and 364/417 (87.3) %, respectively.
For the compound `NCC[C@H](O)C(=O)N[C@@H]1C[C@H](N)[C@@H](O[C@H]2O[C@H](CN)[C@@H](O)[C@H](O)[C@H]2O)[C@H](O)[C@H]1O[C@H]1O[C@H](CO)[C@@H](O)[C@H](N)[C@H]1O` [amikacin], the susceptibility of isolates in [19] is 55.0%.
